Source: paper PMC9845987 (Cancer research, 2023)
Like-named read-outs stand apart in the source and are kept apart here. Blank lines part the entries; values can stand above or below the compound they belong to.

Assays:
[1] = tested on: p-EGFR^Y1068 in WM3918 xenograft tumors; test: Xenograft pharmacodynamic Western blot; type: in vivo, mouse; conditions: single dose 100 mg/kg IP; 0.5 h after dosing
SYK = SYK (Homo sapiens, UniProt P43405); test: Biochemical kinase inhibition assay
p-AKT^S473 = test: Quantitative immunofluorescence of p-AKT in MeWo cells; type: cell-based, human; conditions: 6 h, different concentrations
p-BLNK^Y96 = test: Western blot of p-BLNK in IgM-stimulated Ramos cells; type: cell-based, human; conditions: 6 h
[2] = tested on: NF1^LoF melanoma cell lines; test: Growth rate inhibition assay; type: cell-based, human; conditions: for Overall drug sensitivity (area over the dose-response curve): NF1^LoF cell lines; for Normalized growth rate (DIP rate) dose response: nine NF1^LoF melanoma cell lines, 7 day-averaged, four concentrations
mTOR = mTOR (Homo sapiens, UniProt P42345); test: Biochemical kinase inhibition assay; conditions: 10 μM
COLO792 xenografts = test: In vivo xenograft assay, COLO792; design: species or system mouse; conditions: 50 mg/kg IP
p-4EBP1^T37/46 = test: Quantitative immunofluorescence of p-4EBP1 in MeWo cells; type: cell-based, human; conditions: 6 h, different concentrations
PI4KB = PI4KB (Homo sapiens, UniProt Q9UBF8); test: Biochemical kinase inhibition assay; conditions: 10 μM
DNA-PK = DNA-PK (Homo sapiens, UniProt P78527); test: Biochemical kinase inhibition assay; conditions: 10 μM
WM3918 xenografts = test: In vivo xenograft assay, WM3918; design: species or system mouse; conditions: 50 mg/kg IP
[3] = tested on: human epidermal primary melanocytes (NHEM-Ad); test: Growth rate inhibition assay, primary melanocytes; type: cell-based; conditions: highest concentration (1 μM)
[4] = tested on: p-AKT^S473 in WM3918 xenograft tumors; test: Xenograft pharmacodynamic Western blot; type: in vivo, mouse; conditions: single dose 100 mg/kg IP; 0.5 h after dosing
p-ERK^T202/Y204 = test: Quantitative immunofluorescence of p-ERK in MeWo cells; type: cell-based, human; conditions: 6 h, different concentrations
YUHEF cells = conditions: R406 3.16 μM, 72 h
MeWo cells = conditions: R406 3.16 μM, 72 h

% inhibition of SYK (SYK; 10 μM, ATP at Km,app): 94%
Potency on SYK relative to MTX-211 (SYK; ratio of IC50): ~ 21 fold
IC50 (SYK; read-out: SYK IC50, 0.5 nM to 10 μM, ATP at Km,app): 0.281 µM
Inhibition of mTOR (mTOR): inhibited
Inhibition of PI4KB (PI4KB): inhibited
Inhibition of DNA-PK (DNA-PK): inhibited
Compound: N-(2-chloro-5-(4-((3-chloro-4-fluorophenyl)amino)-3-cyanoquinolin-6-yl)pyridin-3-yl)methanesulfonamide [MTX-216]
p-EGFR levels in excised tumors [1]: significant reduction
Change in p-AKT^S473 levels (p-AKT^S473): decreased p-AKT levels in a dose-dependent manner
Inhibition of p-BLNK^Y96 levels (p-BLNK^Y96): more efficient in inhibition of p-BLNK in comparison with MTX-211
Overall drug sensitivity (area over the dose-response curve) [2]: similarly sensitive to both IACS-010759 and MTX-216
Normalized growth rate (DIP rate) dose response [2]: consistently cytotoxic
Body weight (COLO792 xenografts): no major loss in body weight
Tumor growth (COLO792 xenografts; 20 days): suppressed tumor growth
Change in p-4EBP1^T37/46 levels (p-4EBP1^T37/46): did not decrease p-4EBP1 levels at concentrations below 1 μM
Body weight (WM3918 xenografts): no major loss in body weight
Tumor growth (WM3918 xenografts; 11 days): suppressed tumor growth
Cytotoxicity (normalized growth rate) [3]: no cytotoxicity
p-AKT levels in excised tumors [4]: significant reduction
Change in p-ERK^T202/Y204 levels (p-ERK^T202/Y204): no significant effect

Compound: CC(=O)Nc1cccc(-n2c(=O)n(C3CC3)c(=O)c3c(Nc4ccc(I)cc4F)n(C)c(=O)c(C)c32)c1 [trametinib]
Change in p-AKT^S473 levels (p-AKT^S473): but not trametinib, decreased p-AKT levels
Normalized growth rate (DIP rate) dose response [2]: potent but less efficacious responses
Change in p-4EBP1^T37/46 levels (p-4EBP1^T37/46): no effect
Change in p-ERK^T202/Y204 levels (p-ERK^T202/Y204): reduced ERK phosphorylation in a dose-dependent manner

Compound: CC(C)Nc1cc(-c2c[nH]c(C(=O)N[C@H](CO)c3cccc(Cl)c3)c2)c(Cl)cn1 [ulixertinib]
Normalized growth rate (DIP rate) dose response [2]: potent but less efficacious responses

Compound: CS(=O)(=O)N1CCN(Cc2cc3nc(-c4cccc5[nH]ncc45)nc(N4CCOCC4)c3s2)CC1 [pictilisib]
Change in p-AKT^S473 levels (p-AKT^S473): decreased p-AKT levels in a dose-dependent manner
Change in p-4EBP1^T37/46 levels (p-4EBP1^T37/46): did not decrease p-4EBP1 levels at concentrations below 1 μM
Change in p-ERK^T202/Y204 levels (p-ERK^T202/Y204): no significant effect

Compound: COc1cc(Nc2ncc(F)c(Nc3ccc4c(n3)NC(=O)C(C)(C)O4)n2)cc(OC)c1OC [R406]
p-S6 and Ki-67 levels (YUHEF cells): reduced p-S6 and Ki-67
Reduction of growth rate ([2]; MeWo, YUHEF and WM3918, R406 at 3.16 μM, 7-day): approximately 2 fold
p-S6 and Ki-67 levels (MeWo cells): reduced p-S6 and Ki-67

Compound: COc1ccc(-c2ccc3c(N4CCOC[C@@H]4C)nc(N4CCOC[C@@H]4C)nc3n2)cc1CO [AZD8055]
Change in p-AKT^S473 levels (p-AKT^S473): decreased p-AKT levels in a dose-dependent manner
Change in p-4EBP1^T37/46 levels (p-4EBP1^T37/46): potently reduced
Change in p-ERK^T202/Y204 levels (p-ERK^T202/Y204): no significant effect

IC50 (SYK; SYK IC50, 0.5 nM to 10 μM, ATP at Km,app): ~6 µM
inhibition at 10 µM (SYK; read-out: % inhibition of SYK): 52%
Inhibition of mTOR (mTOR): inhibited
Inhibition of PI4KB (PI4KB): inhibited
Inhibition of DNA-PK (DNA-PK): inhibited
Compound: CS(=O)(=O)Nc1cc(-c2ccc3ncnc(Nc4ccc(F)c(Cl)c4)c3c2)cnc1Cl [MTX-211, N-(2-chloro-5-(4-((3-chloro-4-fluorophenyl)amino)quinazolin-6-yl)pyridin-3-yl)methanesulfonamide]
Change in p-AKT^S473 levels (p-AKT^S473): decreased p-AKT levels in a dose-dependent manner
Change in p-4EBP1^T37/46 levels (p-4EBP1^T37/46): did not decrease p-4EBP1 levels at concentrations below 1 μM
Change in p-ERK^T202/Y204 levels (p-ERK^T202/Y204): no significant effect

Compound: Cc1nc(-c2nc(-c3ccc(OC(F)(F)F)cc3)no2)nn1Cc1cccc(N2CCC(S(C)(=O)=O)CC2)c1 [IACS-010759]
Overall drug sensitivity (area over the dose-response curve) [2]: similarly sensitive to both IACS-010759 and MTX-216
Growth inhibition (live cell count, normalized growth rate) ([2]; all tested NF1^LoF cell lines, indicated doses): inhibited growth in a dose-dependent fashion
